Test results published in patent US9702880B2, “Antisense RNA for treating cancer and inhibition of metastasis and vectors for antisense sequestration” (Istituto Superiore di Sanità, priority 2008, dated 2017).
Read-outs that look alike come from different tables or passages of the source.

Tests used:
LNCaP cells = conditions: 10 ng/ml
Description: FIG. 12A Evaluation of cell death and caspase activation in RWPE-1 cells infected with TW3′ or decoy15/16 vectors and treated with 10 ng/ml of docetaxel. Caspase activation was measured after 4 h of treatment. FIG. 12B Evaluation of cell death and caspase activation in LNCaP cells infected with TW or TWmiR-15a/miR-16 vectors and exposed to 10 ng/ml of docetaxel. FIG. 12C-D Evaluation of cell death and caspase activation in miR15a/miR-16 defective or non-defective (normal) primary tumor cells transduced as indicated and treated with 10 ng/ml docetaxel. FIG. 12C. Cell death was measured after 24 h exposure to docetaxel. FIG. 12D. Caspase activation in LNCaP and primary tumor cells was measured after 18 h of treatment. Data are mean±s.d. of at least three independent experiments for each group.
Cell death was evaluated by trypan blue staining, PI staining and flow cytometry analysis, Apo-percentage assay (Biocolor) and Cell Titer kit (Promega). Caspase activation was detected using APO-one Homogeneous Caspase3/7 Assay Kit (Promega).

cyclin D1 3′UTR = assay: Luciferase reporter assay, pGL3-3′UTR cotransfected with miR oligos; assay type: cell-based, human; conditions: K562 cells, 25 pmol oligo, 48 hours post-transfection, vs scrambled oligos
Description: (§1) 3′UTR segments of Bcl-2, cyclin D1 and Wnt3a were amplified by PCR from normal human genomic DNA and subcloned into the 3′UTR of the firefly luciferase coding sequence into pGL3-Promoter (Promega), see Supplementary Methods. Then K562 (5×10^4 cells per well) were transfected using Lipofectamine 2000 (Invitrogen) following the manufacturer's instructions. The transfection mix included: (a) 0.8 μg of pGL3-3′UTR plasmid and 50 ng of the control vector pRL-TK (Promega); (b) 25 pmol of either non-targeting RNA control (scrambled) or miR-15a or miR-16 oligonucleotides (Ambion). Forty-eight hours post-transfection, firefly and renilla luciferase activities were measured using the Dual Luciferase Assay kit (Promega). Transfection efficiencies were normalized by calculating the ratio of firefly to renilla. For each construct the relative luciferase activities were calculated by dividing the values obtained in the transfection of miR-15a and miR-16 by those of miR scrambled. Each experiment was performed in duplicate and replicated five times.
(§2) The miR-15a/miR-16 target genes UTRs were cloned in the Xba I site of pGL3 promoter, immediately downstream from the stop codon of the luciferase coding sequence. For Bcl-2, a 3′UTR of 1329 bp fragment was amplified, corresponding to residues 2446-3774 of Genbank Acc No M14745. For cyclin D1 3′UTR, a 1036 bp fragment was amplified ([…] of No NM_053056). For Wnt3a 3′UTR, a 906 bp fragment was amplified (residues 2026-2932 of No NM_033131.2). For 3′UTR cyclin D1 and Wnt3a mutagenesis, a five nucleotide mutation was inserted in the “seed” sequences interacting with miR-15a and miR-16 (see FIGS. 13A-C). Modified and HPLC purified oligonucleotides (Invitrogen) were used for amplification and mutagenesis, performed with Pfu enzyme following the in vitro mutagenesis kit protocol (Invitrogen). Transfection efficiencies of luciferase assays were normalized by calculating the ratio firefly/renilla. For each construct the relative luciferase activities were obtained by dividing the values obtained in the transfection of miR-15a and miR-16 by those of the non targeting miR scrambled. Each experiment was performed in duplicate and replicated five times.
(§3) To validate our targets, we subcloned the 3′UTR of these genes at the 3′ of the cDNA encoding luciferase in an expression construct and performed cotransfection experiments with miR-15a/miR-16. We narrowed our analysis to 1 kb regions harbouring the putative miR-15a/miR-16 target sites. The Bcl-2 3′UTR was tested in parallel as positive control. Luciferase assay was performed by cotransfecting pGL3-3′UTR vectors along with synthetic miR-15a, miR-16 and a control miR with a scrambled sequence.

Wnt3a 3′UTR = assay: as above; assay type: cell-based, human; conditions: K562 cells, 25 pmol oligo, 48 hours post-transfection, vs scrambled oligos
Description: as §1, §2, §3

Bcl-2 3′UTR = assay: Luciferase reporter assay, pGL3-3′UTR cotransfected with miR oligos (positive control); assay type: cell-based, human; conditions: K562 cells, 25 pmol oligo, 48 hours post-transfection, vs scrambled oligos
Description: as §1
The miR-15a/miR-16 target genes UTRs were cloned in the Xba I site of pGL3 promoter, immediately downstream from the stop codon of the luciferase coding sequence. For Bcl-2, a 3′UTR of 1329 bp fragment was amplified, corresponding to residues 2446-3774 of Genbank Acc No M14745. […]

Pim-1 UTR = assay: Luciferase reporter assay, pGL3-3′UTR cotransfected with miR oligos; assay type: cell-based, human; conditions: K562 cells, 48 hours post-transfection, vs scrambled oligos

Molecule | Cytotoxic activity of docetaxel (LNCaP cells; empty vector-transduced LNCaP cells) | Cytotoxic activity of docetaxel (LNCaP cells; miR-15a/miR-16 reconstituted LNCaP cells) | Luciferase reporter activity (cyclin D1 3′UTR) | Luciferase reporter activity (Wnt3a 3′UTR) | Luciferase reporter activity (Bcl-2 3′UTR) | Luciferase reporter activity (Pim-1 UTR)
CC(=O)O[C@@]12CO[C@@H]1C[C@H](O)[C@@]1(C)C(=O)[C@H](O)C3=C(C)[C@@H](OC(=O)[C@H](O)[C@@H](NC(=O)OC(C)(C)C)c4ccccc4)C[C@@](O)([C@@H](OC(=O)c4ccccc4)[C@H]21)C3(C)C [docetaxel] | scarcely sensitive | massively killed | – | – | – | –
miR-15a: mature miR 15, SEQ ID NO 4, 5′-UAGCAGCACAUAAUGGUUUGUG-3′; synthetic oligonucleotide (Ambion) in reporter assays (listed as RNA, chemistry not given here; listed as Homo sapiens) | – | – | consistent reduction in reporter activity | consistent reduction in reporter activity | consistent reduction in reporter activity | non-targeted region
miR-16: mature miR 16, SEQ ID NO. 5, 5′-UAGCAGCACGUAAAUAUUGGCG-3′; synthetic oligonucleotide (Ambion) in reporter assays (listed as RNA, chemistry not given here; listed as Homo sapiens) | – | – | consistent reduction in reporter activity | consistent reduction in reporter activity | consistent reduction in reporter activity | non-targeted region
